In patent US4216324A, “1-Difluoromethyl-6,7-methylenedioxy-1,4-dihyd ro-4-oxo-3-quinolinecarboxylic acid” (E. I. Du Pont de Nemours and Company, priority 1978, dated 1980):
≈ marks a conversion by molar mass, not a printed value. Where two headings read alike, the source gives them in different places.

Legend:
[1] = General pharmacology screen in mice; details: mouse, in vivo, po; for TD50: doses given in mg./kg
Procedure: 17- to 24-hour fasted female white mice, 16-20 g. each, or rats, 70-90 g. each were dosed orally with test drug (or standard) at 0, 4, 12, 36, 108 or 324 mg./kg.
Ataxia--The mouse or rat was placed upright on the bench top facing away from the observer. Motor incoordination manifested by abnormal gait or lack of precision during purposive movements constituted ataxia.
Vertical Bar--The mouse or rat was swung by the tail with head pointing down to a 0.5" diameter (1" diameter for rats), 30.5 cm long vertical rod covered with adhesive tape. Inability to grip the rod with the front paws, sliding or failure to move after being prodded constituted vertical bar loss.
Body Temperature--The rectal temperatures of the mice and rats were taken using a KC-1 thermocouple probe.
Excitement and Irritability--Increased spontaneous motor activity, running and jumping prior to handling were recorded as excitement. Upon handling, jumping, jerking, biting and squeaking were recorded as irritability.
Anorexia--At the end of the 0.5 hour testing period, each mouse was transferred to an individual, clear, Lucite® compartment (13.3 cm×12.7 cm×12.7 cm) with a 0.64 cm×0.64 cm wire mesh floor. Inside each compartment there was a section of a black Lucite® bar [13 cm×1.2 cm×1.2 cm) with ten spot depressions (0.8 cm diameter) each containing 0.05 ml. of 50% sweetened condensed milk. 30 Minutes later the number of milk spots consumed was counted. 5 Mice per drug dose can drink a maximum of 50 spots (2.5 ml. of milk). 15 or fewer spots consumed by 5 mice constituted anorexia.

[2] = General pharmacology screen in rats; details: in vivo, rat, doses given in mg./kg; for TD50: po
[3] = tested on: Shiq. dysenteriae; test: In vitro minimum inhibitory concentration (MIC), tube dilution test; assay type: cell-based; details: 20 h, read-out: Minimal Inhibitory Test Conens. (MIC)
Procedure: (§1) A. In vitro: mimimum inhibitory concentration (MIC)
(§2) The compound was tested in a standard bacteriological tube dilution test for MIC for a variety of bacteria. Stock cultures of the bacteria listed in Table 1 were grown in bacterial culture media at 37° C. overnight and diluted in culture tubes to a previously determined concentration proper for the test. The compound was added to result in final concentrations of 10, 2, 0.4 and 0.08 μg/ml. These were incubated for 18 hours at 37° C. and then observed to determine if growth of bacteria had occurred. The lowest concentration of the compound that inhibited bacterial growth in the MIC.
(§3) *brain-heart infusion broth, 20hour incubation at 37° C.

[4] = tested on: Sal. typhimurium; test: as above; assay type: cell-based; details: Salmonella enterica, 20 h, brain-heart infusion broth, 20hour incubation at 37° C., read-out: Minimal Inhibitory Test Conens. (MIC)
Procedure: as §1, §2, §3

[5] = tested on: Ser. marcescens; test: as above; assay type: cell-based; details: Serratia marcescens; Ser. marcescens (22); brain-heart infusion broth, 20hour incubation at 37° C.; read-out: Minimal Inhibitory Test Conens. (MIC)
Procedure: as §1, §2, §3

[6] = tested on: Sal. choleraesuis; test: as above; assay type: cell-based; details: Salmonella enterica, 20 h, read-out: Minimal Inhibitory Test Conens. (MIC)
Procedure: as §1, §2, §3

[7] = tested on: Proteus vulgaris; test: as above; assay type: cell-based; details: Proteus vulgaris (14P); brain-heart infusion broth, 20hour incubation at 37° C.; read-out: Minimal Inhibitory Test Conens. (MIC)
Procedure: as §1, §2, §3

[8] = tested on: Bac. subtilis; test: as above; assay type: cell-based; details: Bacillus subtilis; Bac. subtilis (07A); brain-heart infusion broth, 20hour incubation at 37° C.; read-out: Minimal Inhibitory Test Conens. (MIC)
Procedure: as §1, §2, §3

[9] = tested on: Staph. aureus; test: as above; assay type: cell-based; details: Staphylococcus aureus; Staph. aureus (08F); brain-heart infusion broth, 20hour incubation at 37° C.; read-out: Minimal Inhibitory Test Conens. (MIC)
Procedure: as §1, §2, §3

[10] = tested on: E. coli; test: as above; assay type: cell-based; details: Escherichia coli, 20 h, brain-heart infusion broth, 20hour incubation at 37° C., read-out: Minimal Inhibitory Test Conens. (MIC)
Procedure: as §1, §2, §3

[11] = tested on: Kleb. aerobacter; test: as above; assay type: cell-based; details: Kleb. aerobacter (20F); brain-heart infusion broth, 20hour incubation at 37° C.; read-out: Minimal Inhibitory Test Conens. (MIC)
Procedure: as §1, §2, §3

[12] = tested on: Proteus sp.; test: as above; assay type: cell-based; details: brain-heart infusion broth, 20hour incubation at 37° C., read-out: Minimal Inhibitory Test Conens. (MIC)
Procedure: as §1, §2, §3

[13] = tested on: Aero. cloacae; test: as above; assay type: cell-based; details: Enterobacter cloacae; Aero. cloacae (39A); brain-heart infusion broth, 20hour incubation at 37° C.; read-out: Minimal Inhibitory Test Conens. (MIC)
Procedure: as §1, §2, §3

[14] = tested on: Sal. gallinarum; test: as above; assay type: cell-based; details: Salmonella enterica, 20 h, brain-heart infusion broth, 20hour incubation at 37° C., read-out: Minimal Inhibitory Test Conens. (MIC)
Procedure: as §1, §2, §3

[15] = tested on: Sal. typhi; test: as above; assay type: cell-based; details: brain-heart infusion broth, 20hour incubation at 37° C.
Procedure: as §1, §2, §3

[16] = tested on: Strep. pyogenes; test: as above; assay type: cell-based; details: Streptococcus pyogenes; Strep. pyogenes (10V); brain-heart infusion broth, 20hour incubation at 37° C.; read-out: Minimal Inhibitory Test Conens. (MIC)
Procedure: as §1, §2, §3

## CCn1cc(C(=O)O)c(=O)c2cc3c(cc21)OCO3 [Oxolinic Acid, oxolinic acid]
[1]
  LD50 at 24 h: > 450 mg/kg
[1]; ED50 Anoroxia, 15 or fewer milk spots consumed by 5 mice
  TD50: 21 mg/kg
[1]; ED50 Ataxia
  TD50: 3.2 mg/kg
[1]; ED50 Excitation
  TD50: 8 mg/kg
[1]; ED50 Hypertherm., rectal temperature
  TD50: > 450 mg/kg
[1]; ED50 Hypotherm., rectal temperature
  TD50: > 450 mg/kg
[1]; ED50 Irritability
  TD50: 36 mg/kg
[1]; ED50 Vert. Bar, vertical bar loss
  TD50: 4.5 mg/kg
[2]; oral, read-out: ED50 24-Hour Mort.
  LD50 at 24 h: > 324 mg/kg
[2]; read-out: ED50 Ataxia
  TD50: 97 mg/kg
[2]; read-out: ED50 Excitation
  TD50: 62 mg/kg
[2]; read-out: ED50 Irritability
  TD50: > 324 mg/kg
[2]; rectal temperature, read-out: ED50 Hypertherm.
  TD50: 121 mg/kg
[2]; rectal temperature, read-out: ED50 Hypotherm.
  TD50: > 324 mg/kg
[2]; vertical bar loss, read-out: ED50 Vert. Bar
  TD50: 187 mg/kg
[3]
  MIC: 0.4 µg/mL (≈ 1.53 µM)
[4]; Sal. typhimurium (03A)
  MIC: 0.4 µg/mL (≈ 1.53 µM)
[4]; Sal. typhimurium (03C)
  MIC: 0.4 µg/mL (≈ 1.53 µM)
[4]; Sal. typhimurium (03K)
  MIC: < 0.08 µg/mL
[5]
  MIC: 0.4 µg/mL (≈ 1.53 µM)
[6]
  MIC: < 0.08 µg/mL
[7]
  MIC: 2 µg/mL (≈ 7.66 µM)
[8]
  MIC: < 0.08 µg/mL
[9]
  MIC: 0.4 µg/mL (≈ 1.53 µM)
[10]; E. coli (06-2B)
  MIC: 2 µg/mL (≈ 7.66 µM)
[10]; E. coli (06-2F)
  MIC: 0.4 µg/mL (≈ 1.53 µM)
[10]; E. coli (06-2L)
  MIC: 10 µg/mL (≈ 38.3 µM)
[10]; E. coli (06-2M)
  MIC: < 0.08 µg/mL
[10]; E. coli (06C)
  MIC: 2 µg/mL (≈ 7.66 µM)
[10]; E. coli (06I)
  MIC: 10 µg/mL (≈ 38.3 µM)
[10]; E. coli (06J)
  MIC: 0.4 µg/mL (≈ 1.53 µM)
[10]; E. coli (06K)
  MIC: 0.4 µg/mL (≈ 1.53 µM)
[10]; E. coli (06L)
  MIC: 0.4 µg/mL (≈ 1.53 µM)
[10]; E. coli (06M)
  MIC: 0.4 µg/mL (≈ 1.53 µM)
[10]; E. coli (06S)
  MIC: 2 µg/mL (≈ 7.66 µM)
[10]; E. coli (06V)
  MIC: 0.4 µg/mL (≈ 1.53 µM)
[10]; E. coli (06X)
  MIC: 2 µg/mL (≈ 7.66 µM)
[10]; E.coli (06-2D)
  MIC: 2 µg/mL (≈ 7.66 µM)
[11]
  MIC: > 10 µg/mL
[12]
  MIC: < 0.08 µg/mL
[13]
  MIC: < 0.08 µg/mL
[14]; Sal. gallinarum (04C)
  MIC: 2 µg/mL (≈ 7.66 µM)
[14]; Sal. gallinarum (04D)
  MIC: 0.4 µg/mL (≈ 1.53 µM)
[15]; Sal. typhi (02B)
  Minimal Inhibitory Test Conens. (MIC): 0.4 µg/mL
[15]; Salmonella enterica, Sal. typhi (02A), read-out: Minimal Inhibitory Test Conens. (MIC)
  MIC: 0.4 µg/mL (≈ 1.53 µM)
[16]
  MIC: < 0.08 µg/mL
